Reference: patent publication US20240315990A1, “Adelmidrol For Use In Diseases Characterized By Insufficient Agonism Of PPAR-GAMMA Receptor” (Epitech Group S.P.A., priority 2016, published 2024)

Target: T1, PPAR-gamma receptor (Rattus norvegicus, UniProt O88275)
T1 construct: from tissue; host or cells: live rat (in vivo, paw edema model)
T1 sequence (O88275 1-505): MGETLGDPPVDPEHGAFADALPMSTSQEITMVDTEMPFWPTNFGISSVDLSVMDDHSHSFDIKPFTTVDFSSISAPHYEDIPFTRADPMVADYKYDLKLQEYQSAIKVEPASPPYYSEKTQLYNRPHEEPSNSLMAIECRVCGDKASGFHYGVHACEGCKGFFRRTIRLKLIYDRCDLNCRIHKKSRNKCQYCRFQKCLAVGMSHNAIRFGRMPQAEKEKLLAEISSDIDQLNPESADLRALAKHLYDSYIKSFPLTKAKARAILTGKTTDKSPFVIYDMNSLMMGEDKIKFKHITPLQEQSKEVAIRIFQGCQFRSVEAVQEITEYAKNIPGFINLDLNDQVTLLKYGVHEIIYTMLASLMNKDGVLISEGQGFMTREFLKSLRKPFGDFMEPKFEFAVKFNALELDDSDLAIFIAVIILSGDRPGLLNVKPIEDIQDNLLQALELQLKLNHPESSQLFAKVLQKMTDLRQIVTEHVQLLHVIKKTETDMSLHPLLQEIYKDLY
Test: carrageenan-induced rat paw edema with PPAR-gamma antagonist GW9662, residence time of the paw on the hot plate
Assay type: in vivo
Conditions: GW9662 1 mg/kg i.p. 30 min before CAR, Adelmidrol 10 mg/kg i.p.
Experimental: The experimental model of carrageenan-induced rat paw edema is as shown above. In this experiment, the effect was assessed by measuring the residence time of the animal's paw on the hot plate, thus obtaining percentage data with respect to the control treated with carrageenan alone.
The rats (10 animals per group) were divided into the following experimental groups: • CAR+physiological solution; • CAR+GW9662 (1 mg/kg)+Adelmidrol (10 mg/kg); GW9662 was administered i.p. 30 min before injecting CAR and Adelmidrol (i.p.) when injecting CAR; • CAR+Adelmidrol (10 mg/kg); Adelmidrol was administered i.p. when injecting CAR.

SMILES: O=C(Nc1ccccc1)c1cc([N+](=O)[O-])ccc1Cl [GW9662, reference compound]
- effect of pretreatment with PPAR-gamma antagonist on the protective action of Adelmidrol: antagonized the effect of Adelmidrol thus substantially abolishing the protective action thereof
